The subject of one experiment is ornithine decarboxylase (ODC). In words: Inhibition of TPA induction of ornithine decarboxylase (ODC) activity. The class given is in vivo. Conditions: inhibition of TPA-induced ODC; assay essentially per Cancer Res: 1662-1670, 1975. The text has this: The retinoid-like activity of these compounds is confirmed through the classic measure of retinoic acid activity involving the effects of retinoic acid on ornithine decarboxylase. The original work on the correlation between retinoic acid and decrease in cell proliferation was done by Verma & Boutwell, Cancer Research, 1977, 37,2196-2201. That reference discloses that ornithine decarboxylase (ODC) activity increased precedent to polyamine biosynthesis. It has been established elsewhere that increases in polyamine synthesis can be correlated or associated with cellular proliferation. Thus, if ODC activity could be inhibited, cell hyperproliferation could be modulated. Although all causes for ODC activity increases are unknown, it is known that 12-O-tetradecanoylphorbol-13-acetate (TPA) induces ODC activity.
The molecule `CC1(C)CCCC2(C)OC12/C=C/C#Cc1ccc(C(=O)O)cc1` (racemic) [Compound 1, (±)-4-[(3E)-4-(1,2-Epoxy-2,6,6-trimethylcyclohexan-yl)but-3-en-1-ynyl)]benzoic acid] returned an IC80 of 4.8 nM.
Still for that read-out and setting: to `CCOC(=O)c1ccc(C#C/C=C/C23OC2(C)CCCC3(C)C)nc1` (racemic) [Compound 5, Ethyl (±)-6-[(3E)-4-(1,2-Epoxy-2,6,6-trimethylcyclohexanyl)but-3-en-1-ynyl)nicotinate] belongs 1.07 nM.
On the same count and under the same terms, to `CC1(C)CCCC2(C)OC12/C=C/C#Cc1ccc(C(=O)O)cn1` (racemic) [Compound 4, (±)-6-[(3E)-4-(1,2-Epoxy-2,6,6-trimethylcyclohexan-yl)but-3-en-1-ynyl)]nicotinic acid] belongs 21 nM.
Regarding `CC1(C)CCCC2(C)OC12/C=C/C#Cc1ccc(C(=O)O)s1` (racemic) [Compound 3, (±)-5-[(3E)-4-(1,2-Epoxy-2,6,6-trimethylcyclohexan-yl)but-3-en-1-ynyl)]-2-thiophenecarboxylic acid], it took 22.3 nM to reach the 80% level (IC80).
Still for that read-out and setting: in the case of `CCOC(=O)c1ccc(C#C/C=C/C23OC2(C)CCCC3(C)C)s1` (racemic) [Compound 6, Ethyl(±)-5-[(3E)-4-(1,2-Epoxy-2,6,6-trimethylcyclohexanyl)but-3-en-1-ynyl)]-2thiophenecarboxylate] it was 16 nM.

A further experiment has as its system ornithine decarboxylase (ODC).
Experiment: not given
As to conditions: in words; background statement; cited from earlier work.
Regarding `CC1=C(/C=C/C(C)=C/C=C/C(C)=C/C(=O)O)C(C)(C)CCC1` [Retinoic acid], the “inhibition of induction of ODC activity by TPA” value was “inhibits this induction of ODC activity by TPA”.
